# Laboratory results taken from patent US12559529B2, “NPY2 receptor agonists” (Boehringer Ingelheim International GmbH, priority 2019, dated 2026).
# *1 amine or outer side, *2 acyl side, *3 side chain or, on linkers, in order; H or OH if unused. Where a SMILES comes first, the peptide text is derived from it. Side-chain parts run from the residue outwards. The star is where a group is joined. C18 diacid = O=C(O)CCCCCCCCCCCCCCCCC(=O)*; γGlu = O=C(O)[C@H](CCC(=O)[*:2])N[*:1]; Isovaleryl = CC(C)CC(=O)*; AEEA = NCCOCCOCC(=O)O
# Biological target: T1, Human Neuropeptide Y2 Receptor (Homo sapiens, UniProt P49146)
# T1 construct: purchased CHEMICON HTS066M
# T1 sequence (P49146 1-381): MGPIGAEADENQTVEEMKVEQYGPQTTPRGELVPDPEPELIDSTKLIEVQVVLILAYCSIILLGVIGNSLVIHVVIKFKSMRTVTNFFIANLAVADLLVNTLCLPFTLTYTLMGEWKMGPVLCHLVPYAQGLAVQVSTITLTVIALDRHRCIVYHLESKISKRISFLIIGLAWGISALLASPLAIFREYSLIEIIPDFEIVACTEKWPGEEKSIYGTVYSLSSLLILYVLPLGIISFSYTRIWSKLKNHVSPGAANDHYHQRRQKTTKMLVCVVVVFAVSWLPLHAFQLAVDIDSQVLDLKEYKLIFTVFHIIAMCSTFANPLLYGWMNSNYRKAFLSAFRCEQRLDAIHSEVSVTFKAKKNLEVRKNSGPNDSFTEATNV
# Assay: Radioligand binding competition assay (RLB)
# Details: Table 3; human 125I-PYY (1-36) 0.02 nM, Y2 receptor membranes; read-out: Ki
# Procedure, shortened: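 IC50 values come from nonlinear regression of sigmoidal dose-response curves of filter-bound radioactivity. Peptides competed with radioligand at human Y2 receptor membranes (0.5 μg protein/well) for 2 h at room temperature in pH 7.4 HEPES buffer containing Mg2+, Ca2+ and 0.2% ovalbumin.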
row,Ki [nM],Compound
1,2.05,"CC(C)CC(=O)N[C@@H](C)C(=O)N1CCC[C@H]1C(=O)N[C@@H](CCC(=O)O)C(=O)N[C@@H](CCCCNC(=O)COCCOCCNC(=O)COCCOCCNC(=O)CC[C@H](NC(=O)CCCCCCCCCCCCCCCCC(=O)O)C(=O)O)C(=O)N1CCC[C@H]1C(=O)N[C@@H](CCC(=O)O)C(=O)N[C@@H](CCC(=O)O)C(=O)N[C@@H](CC(=O)O)C(=O)N[C@@H](C)C(=O)N[C@@H](CO)C(=O)N1CCC[C@H]1C(=O)N[C@@H](CCC(=O)O)C(=O)N[C@@H](CCC(=O)O)C(=O)N[C@H](C(=O)N[C@@H](CCC(N)=O)C(=O)N[C@@H](CCCNC(=N)N)C(=O)N[C@@H](Cc1ccc(O)cc1)C(=O)N[C@@H](Cc1ccc(O)cc1)C(=O)N[C@H](C(=O)N[C@@H](CO)C(=O)N[C@@H](CC(C)C)C(=O)N[C@@H](CCCNC(=N)N)C(=O)N[C@@H](Cc1c[nH]cn1)C(=O)N[C@@H](Cc1ccc(O)cc1)C(=O)N[C@@H](Cc1ccc(O)cc1)C(=O)N[C@@H](CC(N)=O)C(=O)N[C@@H](Cc1c[nH]c2ccccc12)C(=O)N[C@@H](CC(C)C)C(=O)N[C@H](C(=O)N[C@@H](CCCNC(=N)N)C(=O)N[C@@H](CCC(N)=O)C(=O)N[C@@H](CCCNC(=N)N)C(=O)N[C@@H](Cc1ccc(O)cc1)C(N)=O)[C@@H](C)O)C(C)C)[C@@H](C)O [Compound 155, N{alpha-4}-(3-methylbutanoyl)-N{epsilon-7}-[2-(2-{2-[2-(2-{2-[(4S)-4-carboxy-4-(17-carboxyheptadecanamido)butanamido]ethoxy}ethoxy)acetamido]ethoxy}ethoxy)acetamido]-[4A,7K,9E,17T,18Q,22V,28Y,30W,31L]hPYY (4-36)]"
2,4.43,"CC(C)CC(=O)N[C@@H](C)C(=O)N1CCC[C@H]1C(=O)N[C@@H](CCC(=O)O)C(=O)N[C@@H](CCCCNC(=O)COCCOCCNC(=O)COCCOCCNC(=O)CC[C@H](NC(=O)CCCCCCCCCCCCCCCCC(=O)O)C(=O)O)C(=O)N1CCC[C@H]1C(=O)N[C@@H](CCC(=O)O)C(=O)N[C@@H](CCC(=O)O)C(=O)N[C@@H](CC(=O)O)C(=O)N[C@@H](C)C(=O)N[C@@H](CO)C(=O)N1CCC[C@H]1C(=O)N[C@@H](CCC(=O)O)C(=O)N[C@@H](CCC(=O)O)C(=O)N[C@@H](CC(C)C)C(=O)N[C@@H](CCC(N)=O)C(=O)N[C@@H](CCCNC(=N)N)C(=O)N[C@@H](Cc1ccc(O)cc1)C(=O)N[C@@H](Cc1ccc(O)cc1)C(=O)N[C@H](C(=O)N[C@@H](CO)C(=O)N[C@@H](CC(C)C)C(=O)N[C@@H](CCCNC(=N)N)C(=O)N[C@@H](Cc1c[nH]cn1)C(=O)N[C@@H](Cc1ccc(O)cc1)C(=O)N[C@@H](Cc1c[nH]c2ccccc12)C(=O)N[C@@H](CC(N)=O)C(=O)N[C@@H](Cc1ccc(O)cc1)C(=O)N[C@@H](CC(C)C)C(=O)N[C@H](C(=O)N[C@@H](CCCNC(=N)N)C(=O)N[C@@H](CCC(N)=O)C(=O)N[C@@H](CCCNC(=N)N)C(=O)N[C@@H](Cc1ccc(O)cc1)C(N)=O)[C@@H](C)O)C(C)C [Compound 158, N{alpha-4}-(3-methylbutanoyl)-N{epsilon-7}-[2-(2-{2-[2-(2-{2-[(4S)-4-carboxy-4-(17-carboxyheptadecanamido)butanamido]ethoxy}ethoxy)acetamido]ethoxy}ethoxy)acetamido]-[4A,7K,9E,18Q,22V,28W,30Y,31L]hPYY (4-36)] (Isovaleryl-APEK([AEEA-AEEA-γGlu-C18 diacid])PEEDASPEELQRYYVSLRHYWNYLTRQRY-NH2)"
3,2,"CC(C)CC(=O)N[C@@H](C)C(=O)N1CCC[C@H]1C(=O)N[C@@H](CCC(=O)O)C(=O)N[C@@H](CCCCNC(=O)COCCOCCNC(=O)COCCOCCNC(=O)CC[C@H](NC(=O)CCCCCCCCCCCCCCCCC(=O)O)C(=O)O)C(=O)N1CCC[C@H]1C(=O)N[C@@H](CCC(=O)O)C(=O)N[C@@H](C)C(=O)N[C@@H](CC(=O)O)C(=O)N[C@@H](C)C(=O)N[C@@H](CCC(=O)O)C(=O)N1CCC[C@H]1C(=O)N[C@@H](CCC(=O)O)C(=O)N[C@@H](CCC(=O)O)C(=O)N[C@@H](CC(C)C)C(=O)N[C@@H](CCC(N)=O)C(=O)N[C@@H](CCCNC(=N)N)C(=O)N[C@@H](Cc1ccc(O)cc1)C(=O)N[C@@H](Cc1ccc(O)cc1)C(=O)N[C@H](C(=O)N[C@@H](CO)C(=O)N[C@@H](CC(C)C)C(=O)N[C@@H](CCCNC(=N)N)C(=O)N[C@@H](Cc1c[nH]cn1)C(=O)N[C@@H](Cc1ccc(O)cc1)C(=O)N[C@@H](Cc1ccc(O)cc1)C(=O)N[C@@H](CC(N)=O)C(=O)N[C@@H](Cc1c[nH]c2ccccc12)C(=O)N[C@@H](CC(C)C)C(=O)N[C@H](C(=O)N[C@@H](CCCNC(=N)N)C(=O)N[C@@H](CCC(N)=O)C(=O)N[C@@H](CCCNC(=N)N)C(=O)N[C@@H](Cc1ccc(O)cc1)C(N)=O)[C@@H](C)O)[C@@H](C)O [Compound 160, N{alpha-4}-(3-methylbutanoyl)-N{epsilon-7}-[2-(2-{2-[2-(2-{2-[(4S)-4-carboxy-4-(17-carboxyheptadecanamido)butanamido]ethoxy}ethoxy)acetamido]ethoxy}ethoxy)acetamido]-[4A,7K,9E,10A,13E,18Q,22T,28Y,30W,31L]hPYY (4-36)] (Isovaleryl-APEK([AEEA-AEEA-γGlu-C18 diacid])PEADAEPEELQRYYTSLRHYYNWLTRQRY-NH2)"
4,2.49,"CC(C)CC(=O)N[C@@H](C)C(=O)N1CCC[C@H]1C(=O)N[C@@H](CCC(=O)O)C(=O)N[C@@H](CCCCNC(=O)COCCOCCNC(=O)COCCOCCNC(=O)CC[C@H](NC(=O)CCCCCCCCCCCCCCCCC(=O)O)C(=O)O)C(=O)N1CCC[C@H]1C(=O)N[C@@H](CCC(=O)O)C(=O)N[C@@H](CCC(=O)O)C(=O)N[C@@H](CC(=O)O)C(=O)N[C@@H](C)C(=O)N[C@@H](CO)C(=O)N1CCC[C@H]1C(=O)N[C@@H](CCC(=O)O)C(=O)N[C@@H](CCC(=O)O)C(=O)N[C@@H](CC(C)C)C(=O)N[C@@H](CCC(N)=O)C(=O)N[C@@H](CCCNC(=N)N)C(=O)N[C@@H](Cc1ccc(O)cc1)C(=O)N[C@@H](CCC(N)=O)C(=O)N[C@H](C(=O)N[C@@H](CO)C(=O)N[C@@H](CC(C)C)C(=O)N[C@@H](CCCNC(=N)N)C(=O)N[C@@H](Cc1c[nH]cn1)C(=O)N[C@@H](Cc1ccc(O)cc1)C(=O)N[C@@H](Cc1ccc(O)cc1)C(=O)N[C@@H](CC(N)=O)C(=O)N[C@@H](Cc1c[nH]c2ccccc12)C(=O)N[C@@H](CC(C)C)C(=O)N[C@H](C(=O)N[C@@H](CCCNC(=N)N)C(=O)N[C@@H](CCC(N)=O)C(=O)N[C@@H](CCCNC(=N)N)C(=O)N[C@@H](Cc1ccc(O)cc1)C(N)=O)[C@@H](C)O)C(C)C [Compound 165, N{alpha-4}-(3-methylbutanoyl)-N{epsilon-7}-[2-(2-{2-[2-(2-{2-[(4S)-4-carboxy-4-(17-carboxyheptadecanamido)butanamido]ethoxy}ethoxy)acetamido]ethoxy}ethoxy)acetamido]-[4A,7K,9E,18Q,21Q,22V,28Y,30W,31L]hPYY (4-36)]"
5,0.66,"CC(C)CC(=O)N[C@@H](C)C(=O)N1CCC[C@H]1C(=O)N[C@@H](CCC(=O)O)C(=O)N[C@@H](CCCCNC(=O)COCCOCCNC(=O)COCCOCCNC(=O)CC[C@H](NC(=O)CCCCCCCCCCCCCCCCC(=O)O)C(=O)O)C(=O)N1CCC[C@H]1C(=O)N1CCC[C@H]1C(=O)N[C@@H](C)C(=O)N[C@@H](CC(=O)O)C(=O)N[C@@H](C)C(=O)N[C@@H](CO)C(=O)N1CCC[C@H]1C(=O)N[C@@H](CCC(=O)O)C(=O)N[C@@H](CCC(=O)O)C(=O)N[C@@H](CC(C)C)C(=O)N[C@@H](CCC(N)=O)C(=O)N[C@@H](CCCNC(=N)N)C(=O)N[C@@H](Cc1ccc(O)cc1)C(=O)N[C@@H](Cc1ccc(O)cc1)C(=O)N[C@H](C(=O)N[C@@H](CCC(=O)O)C(=O)N[C@@H](CC(C)C)C(=O)N[C@@H](CCCNC(=N)N)C(=O)N[C@@H](Cc1c[nH]cn1)C(=O)N[C@@H](Cc1ccc(O)cc1)C(=O)N[C@@H](Cc1ccc(O)cc1)C(=O)N[C@@H](CC(N)=O)C(=O)N[C@@H](Cc1c[nH]c2ccccc12)C(=O)N[C@@H](CC(C)C)C(=O)N[C@H](C(=O)N[C@@H](CCCNC(=N)N)C(=O)N[C@@H](CCC(N)=O)C(=O)N[C@@H](CCCNC(=N)N)C(=O)N[C@@H](Cc1ccc(O)cc1)C(N)=O)[C@@H](C)O)C(C)C [Compound 166, N{alpha-4}-(3-methylbutanoyl)-N{epsilon-7}-[2-(2-{2-[2-(2-{2-[(4S)-4-carboxy-4-(17-carboxyheptadecanamido)butanamido]ethoxy}ethoxy)acetamido]ethoxy}ethoxy)acetamido]-[4A,7K,9P,10A,18Q,22V,23E,28Y,30W,31L]hPYY (4-36)]"
